The results in this text go back to PubChem BioAssay (NCI).

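Tested at 5 concentrations; 48 h exposure; 96-well plates; endpoints linearly interpolated, else capped at highest concentration. Definition used: TGI = concentration required for complete inhibition of growth.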

Some test systems named below: SR leukemia; HCT-116 colon; A498 renal; TK-10 renal; 786-0 renal; MDA-MB-435; SNB-19 CNS; HL-60(TB) leukemia; SN12C renal.
Common to all, as to test: NCI tumour cell line growth inhibition, 48 h

As for `CCOc1ccc(N=Nc2ccc3cc(/C(C)=N/NC(=O)/C(C#N)=C\c4ccc(N(CCC#N)CCC#N)cc4)c(=O)oc3c2)cc1`, the TGI in the assay with SR leukemia, in the assay with HCT-116 colon, in the assay on A498 renal, with TK-10 renal, in the assay on 786-0 renal and with MDA-MB-435 was over 10 µM in each case. Also, the TGI with SNB-19 CNS, in the assay on HL-60(TB) leukemia and with SN12C renal was over 10 µM throughout.

Take `CC(C)=CCC12Cc3ccc(O)cc3C(C(C)CN1)C2C` (stereo unspecified): the TGI with SR leukemia, with HCT-116 colon, in the assay on A498 renal, with TK-10 renal, with 786-0 renal and with MDA-MB-435 was over 100 µM in each case. For the same compound, the TGI in the assay with SNB-19 CNS, in the assay on HL-60(TB) leukemia and with SN12C renal was over 100 µM throughout.

With `CC(=O)OCC(=O)O[C@@H]1[C@H]2[C@@H](OC(=O)c3ccccc3)[C@@H](C)C[C@]2(O)[C@H](OC(C)=O)[C@@]2(C)C[C@]1(OC(C)=O)C[C@H]1C(=O)C(C)(C)[C@@H](OC(C)=O)[C@@H]12`, the TGI in the assay on SR leukemia is over 25 µM; in the assay on HCT-116 colon, over 25 µM; in the assay on A498 renal, over 23.8 µM; in the assay with TK-10 renal, over 25 µM; in the assay with 786-0 renal, over 25 µM; in the assay on MDA-MB-435, over 25 µM. Also, the TGI in the assay on SNB-19 CNS, with HL-60(TB) leukemia and with SN12C renal was over 25 µM throughout.

`C=C(C)[C@H]1CC(=O)/C(C)=C\CC/C(C)=C/CC[C@@]2(C)O[C@@H]2C1`: the TGI is over 100 µM in the assay with SR leukemia; 32.8 µM with HCT-116 colon; over 100 µM in the assay with A498 renal; 76.5 µM with TK-10 renal; over 100 µM in the assay on 786-0 renal; 35 µM in the assay on MDA-MB-435. Further, the TGI with SNB-19 CNS is over 100 µM; with HL-60(TB) leukemia, 66.2 µM; with SN12C renal, 42.7 µM.

In the case of `CC1(C)OC[C@@H](C[C@H](O)COCc2ccccc2)O1`, the TGI with SR leukemia, in the assay on HCT-116 colon, in the assay with A498 renal, in the assay with TK-10 renal, with 786-0 renal and with MDA-MB-435 was over 100 µM throughout. Also, the TGI with SNB-19 CNS, in the assay on HL-60(TB) leukemia and in the assay on SN12C renal was over 100 µM in each case.

As to `CCCCN1C(=O)CC2[C@@H]3CCc4cc(OC)ccc4C3CC[C@]2(C)C1=O` (stereo partly specified), the TGI in the assay with SR leukemia, with HCT-116 colon, with A498 renal, with TK-10 renal, in the assay with 786-0 renal and with MDA-MB-435 was over 10 µM in each case. Also, the TGI in the assay on SNB-19 CNS, in the assay with HL-60(TB) leukemia and with SN12C renal was over 10 µM in each case.

Turning to `O=C1N/N=C\c2ccc(cc2)OCc2cccc(n2)COc2ccc(cc2)/C=N\NC1=O`, the TGI in the assay on SR leukemia, in the assay on HCT-116 colon, in the assay on A498 renal, with TK-10 renal, in the assay with 786-0 renal and in the assay on MDA-MB-435 was over 25 µM each time. Further, the TGI in the assay with SNB-19 CNS, in the assay with HL-60(TB) leukemia and in the assay with SN12C renal was over 25 µM throughout.

Turning to `Cn1nc2c(c1N)Cc1c(nn(C)c1N)-c1ccccc1-2`, the TGI in the assay with SR leukemia, in the assay on HCT-116 colon, in the assay with A498 renal, in the assay on TK-10 renal, in the assay on 786-0 renal and in the assay on MDA-MB-435 was over 100 µM each time. The TGI with SNB-19 CNS, in the assay with HL-60(TB) leukemia and with SN12C renal was over 100 µM throughout.

Consider `Cc1cc(S(=O)(=O)Nc2n[nH]c(Nc3ccccc3)n2)c(SCC(=O)O)cc1Cl`, for which the TGI with SR leukemia, in the assay on HCT-116 colon, with A498 renal, in the assay with TK-10 renal, in the assay on 786-0 renal and with MDA-MB-435 was over 100 µM in each case. In addition, the TGI in the assay on SNB-19 CNS, in the assay with HL-60(TB) leukemia and in the assay on SN12C renal was over 100 µM each time.

Consider `CC1=C(C(=O)NC2CCCCC2)CC(C(=O)NC2CCCCC2)=C(C)N1`, for which the TGI in the assay on SR leukemia, in the assay on HCT-116 colon, in the assay on A498 renal, in the assay with TK-10 renal, with 786-0 renal and with MDA-MB-435 was over 100 µM each time. Further, the TGI in the assay on SNB-19 CNS, in the assay on HL-60(TB) leukemia and with SN12C renal was over 100 µM each time.

`COc1cc2c3c(cc(Cl)nc3c1OC)C(=O)C(=O)N2`: the TGI in the assay on SR leukemia is over 29.6 µM; in the assay with HCT-116 colon, 13.6 µM; with A498 renal, 30.2 µM; with TK-10 renal, 33.4 µM; with 786-0 renal, 13.4 µM; in the assay on MDA-MB-435, 3.37 µM. Moreover, the figures for the TGI in the assay with SNB-19 CNS, with HL-60(TB) leukemia and in the assay with SN12C renal were 42.6 µM, 3.56 µM and 21 µM, respectively.

On to `O=C1CC(c2ccccc2Cl)C2(C(=O)NC(=O)NC2=O)C(c2ccccc2Cl)C1` (stereo unspecified), for which the TGI in the assay on SR leukemia, in the assay on HCT-116 colon, with A498 renal, in the assay with TK-10 renal, in the assay with 786-0 renal and with MDA-MB-435 was over 100 µM in each case. Moreover, the TGI with SNB-19 CNS, in the assay on HL-60(TB) leukemia and with SN12C renal was over 100 µM throughout.

In the case of `Cc1nnc2n1-c1ccccc1N(Cc1ccccc1)CC2`, the TGI with SR leukemia, in the assay on HCT-116 colon, in the assay on A498 renal, in the assay with TK-10 renal, in the assay with 786-0 renal and in the assay with MDA-MB-435 was over 100 µM each time. Also, the TGI with SNB-19 CNS was over 100 µM; in the assay with HL-60(TB) leukemia, 60 µM; in the assay with SN12C renal, over 100 µM.

For `Clc1cc(C(c2cc(Cl)sc2Cl)c2cc(Cl)sc2Cl)c(Cl)s1`, the TGI in the assay on SR leukemia, in the assay with HCT-116 colon, in the assay with A498 renal, in the assay on TK-10 renal, in the assay on 786-0 renal and with MDA-MB-435 was over 100 µM in each case. For the same compound, the TGI in the assay with SNB-19 CNS, in the assay with HL-60(TB) leukemia and in the assay on SN12C renal was over 100 µM in each case.
